Laboratory results from patent publication US20090155881A1, “CELL-FREE PROTEIN SYNTHESIS METHOD AND CELL-FREE PROTEIN SYNTHESIS REACTION SOLUTION USING ADENOSINE 3',5'-BISPHOSPHATE” (priority 2007, published 2009).

Tested on: mRNA
Assay: mRNA degradation suppressing effect in the cell-free protein synthesis reaction solution (Transdirect insect cell); remaining mRNA detected by agarose electrophoresis and EtBr staining
Format: biochemical, Spodoptera frugiperda
Settings: for degradation suppressing effect: after 240 minutes
Protocol: Using Transdirect insect cell (SHIMADZU CORPORATION), each of the following reaction solutions was prepared in a scale of 50 μL. Transdirect insect cell is a cell-free protein synthesis reaction solution containing an extract from Sf21, and contains a potassium salt, a magnesium salt, adenosine triphosphate, guanosine triphosphate, creatine phosphate, creatine kinase, an amino acid component, a tRNA, a foreign mRNA, and a buffer as ingredients other than the extract derived from Sf21.
As the RNase inhibitor, an RNase inhibitor derived from a human placenta (TAKARA BIO) was used, and as the pAp, Adenosine 3′,5′-diphosphate sodium salt (SIGMA-ALDRICH) was used, and prepared as an aqueous solution of 100 mM. Each reaction solution was subjected to a translation reaction at 25° C.
For each reaction solution, reaction solutions after 0, 60, and 120 minutes from starting of a translation reaction were recovered. 10 μL of the recovered reaction solution was collected into 20 μL of TRIzol LS Reagent (Invitrogen), and the whole RNA was extracted. The extracted RNA was dissolved in 10 μL of pure water.
To each solution of extracted RNA, 4 μL of a loading buffer (Wako Pure Chemical Industries) was added, and the total was subjected to electrophoresis (a TAE buffer, 1% agarose gel). The RNA separated by electrophoresis was detected by EtBr (ethidium bromide) staining.
By the same steps as Steps 1 to 3 of Example 1, a translation reaction was conducted for the following reaction solutions.
As for Reaction Solution 6, pAp was added before the reaction so that the final concentration was 5 mM, and after 60 minutes from starting of the reaction, 2.5 μL of a 100 mM pAp aqueous solution prepared in step 3 was added. As a result, the pAp concentration of supplemented pAp excluding the pAp that was present from the initial stage of the reaction was 5 mM.
Steps 4 and 5 as same as those in Example 1 were conducted except that for each reaction solution, the reaction solution was recovered after 0, 120, 180, and 240 minutes from starting of the translation reaction.
In Reaction Solutions 7 and 8, a 4M aqueous LiCl solution was prepared for stock, and using the stock solution, the final concentration in the reaction solution was adjusted to 50 mM.
Steps 4 and 5 were conducted in the same manner as in Example 1 except that for each reaction solution, the reaction solution was recovered after 0, 180, and 240 minutes from starting of the translation reaction.

Question: Which results are given for `Nc1ncnc2c1ncn2[C@@H]1O[C@H](COP(=O)(O)O)[C@@H](OP(=O)(O)O)[C@H]1O` [pAp, adenosine 3′,5′-bisphosphate]?
Answer: degradation suppressing effect (5 mM pAp plus supplementation of 5 mM pAp after 60 minutes (Reaction Solution 6)): sustained; RNA degradation suppressing effect (5 mM pAp, supplementation not conducted (Reaction Solution 4), after 180 minutes): lost with time; degradation suppressing effect (10 mM pAp, supplementation not conducted (Reaction Solution 5)): sustained; mRNA remaining (electrophoresis) (pAp 5 mM alone, no LiCl (lane 4), after 180 minutes): almost all the mRNA was degraded; mRNA degradation suppressing effect (pAp final concentration 5 mM, no RNase inhibitor (Reaction Solution 4), reaction times 60 and 120 minutes, 25° C.): apparent degradation suppressing effect

Question: With `[Cl-].[Li+]` [LiCl, lithium chloride] as the molecule, how does the “mRNA remaining (electrophoresis)” value (LiCl 50 mM alone, no pAp (lane 7), after 180 minutes) read?
Answer: almost all the mRNA was degraded

B1: RNase inhibitor: RNase inhibitor derived from a human placenta (TAKARA BIO) (protein, UniProt P13489 2-461, looked up)
Ribonuclease inhibitor: SLDIQSLDIQCEELSDARWAELLPLLQQCQVVRLDDCGLTEARCKDISSALRVNPALAELNLRSNELGDVGVHCVLQGLQTPSCKIQKLSLQNCCLTGAGCGVLSSTLRTLPTLQELHLSDNLLGDAGLQLLCEGLLDPQCRLEKLQLEYCSLSAASCEPLASVLRAKPDFKELTVSNNDINEAGVRVLCQGLKDSPCQLEALKLESCGVTSDNCRDLCGIVASKASLRELALGSNKLGDVGMAELCPGLLHPSSRLRTLWIWECGITAKGCGDLCRVLRAKESLKELSLAGNELGDEGARLLCETLLEPGCQLESLWVKSCSFTAACCSHFSSVLAQNRFLLELQISNNRLEDAGVRELCQGLGQPGSVLRVLWLADCDVSDSSCSSLAATLLANHSLRELDLSNNCLGDAGILQLVESVRQPGCLLEQLVLYDIYWSEEMEDRLQALEKDKPSLRVIS
Question: B1 was tested. Which “mRNA degradation suppressing effect” value (RNase inhibitor final concentration 1 U/μL, no pAp (Reaction Solution 3 vs Reaction Solution 2), 0, 60, 120 minutes) did it give?
Answer: not observed
